Values quoted from earlier work, collected in article PMC3538728 (PLoS ONE, 2013).
Read-outs that look alike come from different tables or passages of the source.

Columns and labels:
[1] = set-up: method as in PMID 19527190; conditions: early in preclinical studies; cited from earlier work
[2] = cited from earlier work; for outcome in phase III clinical trials: relative to placebo
γ-secretase = molecular target: γ-secretase; set-up: method as in PMID 19694467, PMID 21141968, PMID 19402777, PMID 22323718, PMID 22798753; conditions: cited from earlier work

For `C[C@H](NC(=O)[C@@H](O)c1cc(F)cc(F)c1)C(=O)N[C@@H]1C(=O)N(C)c2ccccc2-c2ccccc21` [LY-411,575, N2-[(2S)-2-(3,5-difluorophenyl)-2-hydroxyethanoyl]-N1-[(7S)-5-methyl-6-oxo-6,7-di hydro-5H-dibenzo[b,d]azepin-7-yl]-L-alaninamide], the “toxicity in preclinical studies” value [1] is listed as “toxic side-effects”.

For `NC(=O)[C@@H](CCC(F)(F)F)N(Cc1ccc(-c2ncon2)cc1F)S(=O)(=O)c1ccc(Cl)cc1` [avagacestat], the “outcome in phase II clinical studies” value ([2]; phase II) is listed as “Dose dependent cognitive decline”.

In the case of `CC(C)[C@H](O)C(=O)N[C@@H](C)C(=O)N[C@@H]1C(=O)N(C)CCc2ccccc21` [semagacestat], the IC50 (γ-secretase) is given as about 20 nM, the “outcome in phase III clinical trials” value [2] is given as “irreversibly advance cognitive decline” and the “outcome in phase III clinical trials” value ([2]; listed as Semagacestat) is given as “toxic side-effects and irreversible cognitive decline”. For the same compound, the tolerance ([2]; preclinical studies and short phase I and phase II clinical trials) was “good tolerance”.
